# According to patent US10842874B2, “Sensitization of bacterial cells to quinolone antibiotics” (Massachusetts Institute of Technology, priority 2017, dated 2020):
# Key:
# [1] = system: E. coli K12 strain MG1655 stationary phase cells; test: Potentiation assays on stationary phase cultures (metabolites / oxygen plus antibiotic, CFU/mL); assay type: cell-based, Escherichia coli; conditions: for killing of stationary phase E. coli with glucose-fumarate supplementation: different antibiotic concentrations
# M. smegmatis [2] = conditions: exponentially growing cultures (1% maximal density)
# [3] = system: E. coli K12 strain MG1655; assay type: cell-based, Escherichia coli
# Description: At each time point, cells were also serially diluted in PBS and plated on LB agar plates to determine the CFU/mL at the time of treatment. Time points were taken until cells reached maximum carrying capacity. After 24 hours of treatment, 100 μl of cells from each tube was spun down and re-suspended in PBS on a 96-well plate. Cells were then serially diluted and plated on LB agar plates. The CFU/mL at treatment was normalized by the CFU/mL of stationary phase cells (% max CFU/ml).
# An overnight culture of E. coli was diluted 1/10, 1/100, 1/1000, and 1/10000 in non-baffled flasks. […] Cells were spun down and re-suspended in PBS, diluted and plated on LB agar plates to determine CFU/ml.
# S. aureus = conditions: exponentially growing cultures (1% maximal density)
# M. smegmatis [4] = test: Minimum inhibitory concentration (MIC); assay type: cell-based, Mycobacterium smegmatis; conditions: Mycolicibacterium smegmatis
# [5] = system: M. smegmatis strain mc^2 155; test: Potentiation assay, glucose-fumarate sensitization of stationary phase culture; assay type: cell-based, Mycobacterium smegmatis; conditions: aerated stationary phase; 0.4% fumarate and/or 0.4% glucose
# [6] = MOPS rich media, shaking, 1 μg/mL ciprofloxacin
compound,measurement,setting,value
C[S+](C)[O-] [DMSO],sensitization of stationary phase cultures to ciprofloxacin by the supplement alone,[1]; [6],none of these electron acceptors alone was able to sensitize cells
CC1(C)S[C@@H]2[C@H](NC(=O)[C@H](N)c3ccccc3)C(=O)N2[C@H]1C(=O)O [ampicillin],killing of stationary phase E. coli with glucose-fumarate supplementation,[1],did not kill stationary phase cells
O=C(O)c1cn(C2CC2)c2cc(N3CCNCC3)c(F)cc2c1=O [ciprofloxacin],number of viable cells at higher doses,M. smegmatis [2],below the limit of detection
same,killing at 1 μg/mL (100xMIC),"[3]; 1 μg/mL ciprofloxacin, low and intermediate cell density",maximal killing at low cell density
same,ability to kill the high-density cell population (DDP),"[3]; dose 1000x the MIC, treatment time 24 hours",inability of ciprofloxacin to kill a fraction of the cell population
same,reduction in persister cells of ΔrelAspoT mutant compared to wildtype,"[3]; stationary phase, 1 μg/mL ciprofloxacin, ppGpp0 strain",5.5 fold
same,susceptibility of quinolone hypersensitive mutant recB,"[3]; ΔrecB mutant, stationary phase",hypersensitive in stationary phase
same,number of viable cells at higher doses,S. aureus,below the limit of detection
same,MIC,M. smegmatis [4],0.5 mg/L
O=C(O)/C=C/C(=O)O [fumarate],sensitization of stationary phase cultures to ciprofloxacin by the supplement alone,[1]; [6],none of these electron acceptors alone was able to sensitize cells
same,sensitization of high-density cultures to ciprofloxacin by electron acceptor in combination with glucose,"[1]; MOPS rich media, shaking, 1 μg/mL ciprofloxacin, with glucose",synergistically sensitized
same,sensitization of stationary phase cultures to ciprofloxacin,[5],weakly
"O=[N+]([O-])[O-].[K+] [nitrate, potassium nitrate]",sensitization of stationary phase cultures to ciprofloxacin by the supplement alone,[1]; [6],none of these electron acceptors alone was able to sensitize cells
O=O [oxygen],susceptibility of stationary phase E. coli to ciprofloxacin with supplementation,"[1]; static stationary phase culture, 0.4% glucose, bubbled air, oxygen tension 5-6%, 1 μg/mL ciprofloxacin",minimal effect
gentamicin,killing of stationary phase E. coli with glucose-fumarate supplementation,[1],sensitized
